The record followed here is patent publication US11542313B2, “Incretin analogs and uses thereof” (Eli Lilly and Company, priority 2017, dated 2023).

One series can be described thus: in vivo. As to conditions: male, Sprague-Dawley, rat, sc, 100 nmol/kg.
Another series concerns the target T1, hGcgR (Homo sapiens, UniProt P47871).
T1 construct: expressed in transfected cells; host or cells: HEK293
In words: cAMP assay in HEK293 cells expressing hGcgR, 0.1% casein. The format is cell-based. As to conditions: in the presence of 0.1% casein; read-out: cAMP EC50, GcGR.

In series [1] the target is T2, human GIP receptor (GIPR) (Homo sapiens, UniProt P48546).
T2 construct: expressed in transfected cells; host or cells: HEK293 (membranes)
T2 sequence (P48546 22-466): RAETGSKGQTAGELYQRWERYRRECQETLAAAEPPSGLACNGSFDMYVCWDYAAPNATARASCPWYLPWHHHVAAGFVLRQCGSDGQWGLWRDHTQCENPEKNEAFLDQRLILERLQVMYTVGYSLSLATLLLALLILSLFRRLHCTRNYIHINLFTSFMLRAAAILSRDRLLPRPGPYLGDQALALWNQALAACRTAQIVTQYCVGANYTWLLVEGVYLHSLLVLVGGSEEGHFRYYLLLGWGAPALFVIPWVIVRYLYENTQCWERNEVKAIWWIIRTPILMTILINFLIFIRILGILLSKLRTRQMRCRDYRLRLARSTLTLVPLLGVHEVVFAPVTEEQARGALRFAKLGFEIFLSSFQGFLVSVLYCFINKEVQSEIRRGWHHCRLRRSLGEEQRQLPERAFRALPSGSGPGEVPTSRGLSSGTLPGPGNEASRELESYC
Nature of the series: Radioligand competition binding (SPA), human GIPR membranes. As to conditions: HEK293 membranes, SPA, bacitracin present; mean; read-out: Ki, GIPR. The source says: (§1) Radioligand competition binding assays are run to determine the equilibrium dissociation constant for exemplary compounds and comparator molecules.
(§2) Competition curves are plotted as the percent specific inhibition (y-axis) versus log concentration of compound (x-axis) and analyzed using a four parameter nonlinear regression fit with variable slope (ABase or Genedata).

For series [2] the following is noted: rat, in vivo, sc, 100 nmol/kg.
Description: (§3) The pharmacokinetics of the exemplary analogs are evaluated following a single subcutaneous administration of 100 nM/kg to male Sprague Dawley rats. Blood samples are collected over 120 hours, and resulting individual plasma concentrations are used to calculate pharmacokinetic parameters. Peptide plasma (K3 EDTA) concentrations are determined using a qualified LC/MS method that measured the intact mass of the analog. Each peptide and an analog as an internal standard are extracted from 100% specie specified plasma using methanol with 0.1% formic acid. A Thermo Q-Exactive, High Resolution Instrument, and a Thermo Easy Spray PepMap are combined for LC/MS detection.
Another series has as its target hGLP-1R (Homo sapiens, UniProt P43220). Nature of the series: cAMP assay in HEK293 cells expressing hGLP-1R, 0.1% casein. The conditions noted are these: in the presence of 0.1% casein; read-out: cAMP EC50, GLP-1R. The format is cell-based.
In the next series the target is T3, hGIPR (Homo sapiens, UniProt P48546).
T3 construct: expressed in transfected cells; host or cells: HEK293
T3 sequence (P48546 22-466): T2 sequence (P48546 22-466)
In words: cAMP assay in HEK293 cells expressing hGIPR, 0.1% casein. As to conditions: in the presence of 0.1% casein; read-out: cAMP EC50, GIPR. The format is cell-based.

Series [3] deals with T4, human glucagon receptor (GcgR) (Homo sapiens, UniProt P47871).
T4 construct: expressed in transfected cells; host or cells: HEK293 (membranes)
In words: Radioligand competition binding (SPA), human GcgR membranes. As to conditions: HEK293 membranes, SPA, bacitracin present; mean; read-out: Ki, GcgR.
Description: as §1, §2

The next series has as its target T5, GLP-1 receptor (GLP-1R) (Homo sapiens, UniProt P43220).
T5 construct: expressed in transfected cells; host or cells: HEK293 (membranes)
Nature of the series: Radioligand competition binding (SPA), human GLP-1R membranes. The conditions noted are these: HEK293 membranes, SPA, bacitracin present; mean; read-out: Ki, GLP-1R.
Description: as §1, §2

Structures are written as SMILES. *1 amine or outer side, *2 acyl side, *3 side chain or, on linkers, in order; H or OH if unused. Where a SMILES comes first, the peptide text is derived from it. Side-chain parts run from the residue outwards. [ ]: non-standard residue; d: D form. The star is where a group is joined. C20 diacid = O=C(O)CCCCCCCCCCCCCCCCCCC(=O)*; γGlu = O=C(O)[C@H](CCC(=O)[*:2])N[*:1]; αMeL = CC(C)C[C@](C)(N)C(=O)O; αMeK = C[C@](N)(CCCCN)C(=O)O; AEEA = NCCOCCOCC(=O)O; Aib = CC(C)(N)C(=O)O

T1 sequence (P47871 26-477): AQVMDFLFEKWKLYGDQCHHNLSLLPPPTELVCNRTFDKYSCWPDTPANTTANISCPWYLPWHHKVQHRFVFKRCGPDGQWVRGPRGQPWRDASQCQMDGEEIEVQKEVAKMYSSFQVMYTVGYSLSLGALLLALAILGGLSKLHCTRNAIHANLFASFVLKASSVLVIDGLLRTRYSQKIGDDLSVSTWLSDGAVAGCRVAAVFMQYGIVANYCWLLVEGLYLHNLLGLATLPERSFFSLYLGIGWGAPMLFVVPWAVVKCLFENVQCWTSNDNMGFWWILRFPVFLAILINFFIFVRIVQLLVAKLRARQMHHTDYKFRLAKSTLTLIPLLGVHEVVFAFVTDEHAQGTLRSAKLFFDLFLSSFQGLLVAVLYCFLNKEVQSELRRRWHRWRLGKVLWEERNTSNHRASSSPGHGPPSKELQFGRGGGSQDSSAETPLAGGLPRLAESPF
T4 sequence (P47871 26-477): as above
T5 sequence (P43220 24-463): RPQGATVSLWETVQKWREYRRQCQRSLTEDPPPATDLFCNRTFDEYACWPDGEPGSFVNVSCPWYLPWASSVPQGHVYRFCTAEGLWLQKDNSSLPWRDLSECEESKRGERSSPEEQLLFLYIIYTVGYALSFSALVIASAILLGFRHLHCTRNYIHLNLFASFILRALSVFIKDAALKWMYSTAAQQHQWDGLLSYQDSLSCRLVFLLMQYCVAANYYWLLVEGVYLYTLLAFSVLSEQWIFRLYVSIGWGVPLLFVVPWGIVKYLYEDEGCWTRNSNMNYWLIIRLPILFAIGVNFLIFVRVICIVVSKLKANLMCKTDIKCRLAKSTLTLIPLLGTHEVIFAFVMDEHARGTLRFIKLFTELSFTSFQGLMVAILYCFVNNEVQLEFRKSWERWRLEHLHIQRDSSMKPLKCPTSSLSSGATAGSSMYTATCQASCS
hGLP-1R, sequence (P43220 24-463): as above
Description for in vivo: as §3

In “in vivo”, `CC[C@H](C)[C@H](NC(=O)[C@H](Cc1ccccc1)NC(=O)[C@H](C)NC(=O)[C@](C)(CCCCN)NC(=O)[C@H](CCC(N)=O)NC(=O)[C@H](C)NC(=O)[C@H](CCCCNC(=O)COCCOCCNC(=O)COCCOCCNC(=O)CC[C@H](NC(=O)CCCCCCCCCCCCCCCCCCC(=O)O)C(=O)O)NC(=O)[C@H](CCCCN)NC(=O)[C@H](CC(=O)O)NC(=O)[C@H](CC(C)C)NC(=O)[C@](C)(CC(C)C)NC(=O)[C@@H](NC(=O)[C@H](CO)NC(=O)[C@H](Cc1ccc(O)cc1)NC(=O)[C@H](CC(=O)O)NC(=O)[C@H](CO)NC(=O)[C@@H](NC(=O)[C@H](Cc1ccccc1)NC(=O)[C@@H](NC(=O)CNC(=O)[C@H](CCC(N)=O)NC(=O)C(C)(C)NC(=O)[C@@H](N)Cc1ccc(O)cc1)[C@@H](C)O)[C@@H](C)O)[C@@H](C)CC)C(=O)N[C@@H](CCC(=O)O)C(=O)N[C@@H](Cc1ccc(O)cc1)C(=O)N[C@@H](CC(C)C)C(=O)N[C@@H](CC(C)C)C(=O)N[C@@H](C)C(=O)NC(C)(C)C(=O)NCC(=O)N1CCC[C@H]1C(=O)N[C@@H](CO)C(=O)N[C@@H](CO)C(=O)NCC(=O)N[C@@H](C)C(=O)N1CCC[C@H]1C(=O)N1CCC[C@H]1C(=O)N1CCC[C@H]1C(=O)N[C@@H](CO)C(N)=O` [Example 1] (H-Y[Aib]QGTFTSDYSI[αMeL]LDKK([AEEA-AEEA-γGlu-C20 diacid])AQ[αMeK]AFIEYLLA[Aib]GPSSGAPPPS-NH2; N-terminus assumed) showed an apparent clearance (CL/F) of 0.173 mL/min/kg. The Tmax in “in vivo” was found to be 8 h. In “in vivo”, this molecule showed a half-life of 11.7 h. The EC50 at hGcgR was 0.114 nM; at hGLP-1R, 0.153 nM; at hGIPR, 0.0523 nM. Moreover, the Ki was determined as 0.0469 nM in series [1], 8.41 nM in series [3] and 2.64 nM on GLP-1 receptor (GLP-1R). The molecule also registered an AUCINF_D_obs in series [2] of 95.7 hr*kg*nmol/L/nmol.

As to `CC[C@H](C)[C@H](NC(=O)[C@H](Cc1ccccc1)NC(=O)[C@H](C)NC(=O)C(C)(C)NC(=O)[C@H](CCC(N)=O)NC(=O)[C@H](C)NC(=O)[C@H](CCCCNC(=O)COCCOCCNC(=O)COCCOCCNC(=O)CC[C@H](NC(=O)CCCCCCCCCCCCCCCCCCC(=O)O)C(=O)O)NC(=O)[C@H](CCCCN)NC(=O)[C@H](CC(=O)O)NC(=O)[C@H](CC(C)C)NC(=O)[C@H](CC(C)C)NC(=O)[C@@H](NC(=O)[C@H](CO)NC(=O)[C@H](Cc1ccc(O)cc1)NC(=O)[C@H](CC(=O)O)NC(=O)[C@H](CO)NC(=O)[C@@H](NC(=O)[C@H](Cc1ccccc1)NC(=O)[C@@H](NC(=O)CNC(=O)[C@H](CCC(N)=O)NC(=O)C(C)(C)NC(=O)[C@@H](N)Cc1ccc(O)cc1)[C@@H](C)O)[C@@H](C)O)[C@@H](C)CC)C(=O)N[C@@H](CCC(=O)O)C(=O)N[C@@H](Cc1ccc(O)cc1)C(=O)N[C@@H](CC(C)C)C(=O)N[C@@H](CC(C)C)C(=O)N[C@@H](C)C(=O)NC(C)(C)C(=O)NCC(=O)N1CCC[C@H]1C(=O)N[C@@H](CO)C(=O)N[C@@H](CO)C(=O)NCC(=O)N[C@@H](C)C(=O)N1CCC[C@H]1C(=O)N1CCC[C@H]1C(=O)N1CCC[C@H]1C(=O)N[C@@H](CO)C(N)=O` [Example 15] (H-Y[Aib]QGTFTSDYSILLDKK([AEEA-AEEA-γGlu-C20 diacid])AQ[Aib]AFIEYLLA[Aib]GPSSGAPPPS-NH2; N-terminus assumed), the EC50 on hGcgR was 0.131 nM; at hGLP-1R, 0.253 nM; on hGIPR, 0.0689 nM. Also, the values for the inhibition constant (Ki) (in series [1]; in series [3]; on GLP-1 receptor (GLP-1R)) were 0.0972 nM, 4.56 nM and 5.8 nM, respectively.

In the case of `CC[C@H](C)[C@H](NC(=O)[C@H](Cc1ccccc1)NC(=O)[C@H](C)NC(=O)C(C)(C)NC(=O)[C@H](CCC(N)=O)NC(=O)[C@H](C)NC(=O)[C@H](CCCCNC(=O)COCCOCCNC(=O)COCCOCCNC(=O)CC[C@H](NC(=O)CCCCCCCCCCCCCCCCCCC(=O)O)C(=O)O)NC(=O)[C@H](CCCCN)NC(=O)[C@H](CC(=O)O)NC(=O)[C@H](CC(C)C)NC(=O)[C@H](CC(C)C)NC(=O)[C@@H](NC(=O)[C@H](CO)NC(=O)[C@H](Cc1ccc(O)cc1)NC(=O)[C@H](CC(=O)O)NC(=O)[C@H](CO)NC(=O)[C@@H](NC(=O)[C@H](Cc1ccccc1)NC(=O)[C@@H](NC(=O)CNC(=O)[C@H](CCC(N)=O)NC(=O)C(C)(C)NC(=O)[C@@H](N)Cc1ccc(O)cc1)[C@@H](C)O)[C@@H](C)O)[C@@H](C)CC)C(=O)N[C@@H](CCC(=O)O)C(=O)N[C@@H](Cc1ccc(O)cc1)C(=O)N[C@@H](CC(C)C)C(=O)N[C@@H](CC(C)C)C(=O)N[C@@H](CCC(=O)O)C(=O)NC(C)(C)C(=O)NCC(=O)N1CCC[C@H]1C(=O)N[C@@H](CO)C(=O)N[C@@H](CO)C(=O)NCC(=O)N[C@@H](C)C(=O)N1CCC[C@H]1C(=O)N1CCC[C@H]1C(=O)N1CCC[C@H]1C(=O)N[C@@H](CO)C(N)=O` [Example 17] (H-Y[Aib]QGTFTSDYSILLDKK([AEEA-AEEA-γGlu-C20 diacid])AQ[Aib]AFIEYLLE[Aib]GPSSGAPPPS-NH2), the figures for the EC50 on hGcgR, at hGLP-1R and at hGIPR were 0.135 nM, 0.153 nM and 0.0439 nM, respectively. In addition, the Ki in series [1] is 0.0895 nM; in series [3] it was 5.81 nM; at GLP-1 receptor (GLP-1R), 10.2 nM.

As for `CC[C@H](C)[C@H](NC(=O)[C@H](Cc1ccccc1)NC(=O)[C@H](C)NC(=O)C(C)(C)NC(=O)[C@H](CCC(N)=O)NC(=O)[C@H](C)NC(=O)[C@H](CCCCNC(=O)COCCOCCNC(=O)CC[C@H](NC(=O)CC[C@H](NC(=O)CCCCCCCCCCCCCCCCCCC(=O)O)C(=O)O)C(=O)O)NC(=O)[C@H](CCCCN)NC(=O)[C@H](CC(=O)O)NC(=O)[C@H](CC(C)C)NC(=O)[C@H](CC(C)C)NC(=O)[C@@H](NC(=O)[C@H](CO)NC(=O)[C@H](Cc1ccc(O)cc1)NC(=O)[C@H](CC(=O)O)NC(=O)[C@H](CO)NC(=O)[C@@H](NC(=O)[C@H](Cc1ccccc1)NC(=O)[C@@H](NC(=O)CNC(=O)[C@H](CCC(N)=O)NC(=O)C(C)(C)NC(=O)[C@@H](N)Cc1ccc(O)cc1)[C@@H](C)O)[C@@H](C)O)[C@@H](C)CC)C(=O)N[C@@H](CCC(=O)O)C(=O)N[C@@H](Cc1ccc(O)cc1)C(=O)N[C@@H](CC(C)C)C(=O)N[C@@H](CC(C)C)C(=O)N[C@@H](CCC(=O)O)C(=O)NC(C)(C)C(=O)NCC(=O)N1CCC[C@H]1C(=O)N[C@@H](CO)C(=O)N[C@@H](CO)C(=O)NCC(=O)N[C@@H](C)C(=O)N1CCC[C@H]1C(=O)N1CCC[C@H]1C(=O)N1CCC[C@H]1C(=O)N[C@@H](CO)C(N)=O` [Example 19] (H-Y[Aib]QGTFTSDYSILLDKK([AEEA-γGlu-γGlu-C20 diacid])AQ[Aib]AFIEYLLE[Aib]GPSSGAPPPS-NH2; N-terminus assumed), the EC50 on hGcgR turned out to be 0.0874 nM; at hGLP-1R, 0.143 nM; on hGIPR, 0.0455 nM. Also, the figures for the Ki (in series [1]; in series [3]; on GLP-1 receptor (GLP-1R)) were 0.0789 nM, 5.2 nM and 12 nM, respectively.

`CC[C@H](C)[C@H](NC(=O)[C@H](Cc1ccccc1)NC(=O)[C@H](C)NC(=O)C(C)(C)NC(=O)[C@H](CCC(N)=O)NC(=O)[C@H](C)NC(=O)[C@H](CCCCNC(=O)COCCOCCNC(=O)CC[C@H](NC(=O)CCCCCCCCCCCCCCCCCCC(=O)O)C(=O)O)NC(=O)[C@H](CCCCN)NC(=O)[C@H](CC(=O)O)NC(=O)[C@H](CC(C)C)NC(=O)[C@H](CC(C)C)NC(=O)[C@@H](NC(=O)[C@H](CO)NC(=O)[C@H](Cc1ccc(O)cc1)NC(=O)[C@H](CC(=O)O)NC(=O)[C@H](CO)NC(=O)[C@@H](NC(=O)[C@H](Cc1ccccc1)NC(=O)[C@@H](NC(=O)CNC(=O)[C@H](CCC(N)=O)NC(=O)C(C)(C)NC(=O)[C@@H](N)Cc1ccc(O)cc1)[C@@H](C)O)[C@@H](C)O)[C@@H](C)CC)C(=O)N[C@@H](CCC(=O)O)C(=O)N[C@@H](Cc1ccc(O)cc1)C(=O)N[C@@H](CC(C)C)C(=O)N[C@@H](CC(C)C)C(=O)N[C@@H](CCC(=O)O)C(=O)NC(C)(C)C(=O)NCC(=O)N1CCC[C@H]1C(=O)N[C@@H](CO)C(=O)N[C@@H](CO)C(=O)NCC(=O)N[C@@H](C)C(=O)N1CCC[C@H]1C(=O)N1CCC[C@H]1C(=O)N1CCC[C@H]1C(=O)N[C@@H](CO)C(N)=O` [Example 20] (H-Y[Aib]QGTFTSDYSILLDKK([AEEA-γGlu-C20 diacid])AQ[Aib]AFIEYLLE[Aib]GPSSGAPPPS-NH2; N-terminus assumed): the values for the EC50 on hGcgR, on hGLP-1R and on hGIPR were 0.0641 nM, 0.149 nM and 0.0572 nM, respectively. In addition, the figures for the Ki (in series [1]; in series [3]; on GLP-1 receptor (GLP-1R)) were 0.109 nM, 3.76 nM and 9.23 nM, respectively.
